From PubChem BioAssay (NCI)
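Growth conditions: 96-well plates. Treatment: test compound, 48 hours, 5 concentrations. Analysis: linear interpolation between bracketing concentrations; unreached endpoints set to highest concentration. GI50 is the concentration that inhibits growth by half. TGI is the concentration that stops growth completely.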

How the values were obtained:
Assay in all cases: NCI-60 cell line screen, 48 h
BT-549 breast = test system: BT-549 breast
KM12 colon = test system: KM12 colon
MALME-3M melanoma = test system: MALME-3M melanoma
MDA-N = test system: MDA-N
OVCAR-5 ovarian = test system: OVCAR-5 ovarian
PC-3 prostate = test system: PC-3 prostate
SK-MEL-2 melanoma = test system: SK-MEL-2 melanoma
TK-10 renal = test system: TK-10 renal
U251 CNS = test system: U251 CNS
UACC-62 melanoma = test system: UACC-62 melanoma
SR leukemia = test system: SR leukemia

O=c1cc(-c2cccnc2)[nH]c2cc3c(cc12)OCO3
TGI (BT-549 breast): > 100 µM | TGI (KM12 colon): > 100 µM | TGI (MALME-3M melanoma): > 26 µM | TGI (MDA-N): 5.71 µM | TGI (OVCAR-5 ovarian): > 100 µM | TGI (PC-3 prostate): > 100 µM | TGI (SK-MEL-2 melanoma): > 100 µM | TGI (TK-10 renal): > 100 µM | TGI (U251 CNS): 30.8 µM | TGI (UACC-62 melanoma): > 100 µM

O=c1cc(-c2ccccc2)[nH]c2nccn12
TGI (KM12 colon): > 10 µM | TGI (MALME-3M melanoma): > 10 µM | TGI (MDA-N): > 10 µM | TGI (OVCAR-5 ovarian): > 10 µM | TGI (PC-3 prostate): > 10 µM | TGI (SK-MEL-2 melanoma): > 10 µM | TGI (SR leukemia): > 10 µM | TGI (TK-10 renal): > 10 µM | TGI (U251 CNS): > 10 µM | TGI (UACC-62 melanoma): > 10 µM

O=C(c1ccccc1)N1C(=S)N(c2ccccn2)C(=Nc2ccccc2)C1=Nc1ccccc1
TGI (KM12 colon): 19 µM | TGI (MALME-3M melanoma): 53.4 µM | TGI (MDA-N): > 50.7 µM | TGI (OVCAR-5 ovarian): > 44.3 µM | TGI (PC-3 prostate): 35.8 µM | TGI (SK-MEL-2 melanoma): 34.6 µM | TGI (SR leukemia): > 63 µM | TGI (TK-10 renal): 88.2 µM | TGI (U251 CNS): 39.6 µM | TGI (UACC-62 melanoma): > 41.3 µM

Cc1n(Cc2ccccc2)nc2sc(N)n[n+]12
TGI (BT-549 breast): > 100 µM | TGI (KM12 colon): > 100 µM | TGI (MALME-3M melanoma): > 100 µM | TGI (MDA-N): > 100 µM | TGI (OVCAR-5 ovarian): > 100 µM | TGI (PC-3 prostate): > 100 µM | TGI (SK-MEL-2 melanoma): > 100 µM | TGI (TK-10 renal): > 100 µM | TGI (U251 CNS): > 100 µM | TGI (UACC-62 melanoma): > 100 µM

Cc1ccc(N/C(SCc2ccccc2)=C(\C(Cl)=C(Cl)Cl)[N+](=O)[O-])c(C)c1
TGI (BT-549 breast): 36.5 µM | TGI (KM12 colon): > 100 µM | TGI (MALME-3M melanoma): 47.5 µM | TGI (MDA-N): 65.1 µM | TGI (OVCAR-5 ovarian): 89.8 µM | TGI (PC-3 prostate): > 100 µM | TGI (SK-MEL-2 melanoma): > 100 µM | TGI (U251 CNS): 29.3 µM | TGI (UACC-62 melanoma): > 100 µM

O=C(CC(Cl)=C(Cl)Cl)c1ccccc1
TGI (BT-549 breast): > 100 µM | TGI (KM12 colon): > 100 µM | TGI (MALME-3M melanoma): > 100 µM | TGI (OVCAR-5 ovarian): > 100 µM | TGI (PC-3 prostate): > 100 µM | TGI (SK-MEL-2 melanoma): > 100 µM | TGI (SR leukemia): 43.7 µM | TGI (TK-10 renal): > 100 µM | TGI (U251 CNS): > 100 µM | TGI (UACC-62 melanoma): > 100 µM

COC(=O)CCC(NC(=O)OC(C)(C)C)C(=O)NC(Cc1ccc(NC(=O)CCCC(C)=O)cc1)C(=O)NC(CCC(=O)OC)C(=O)OC (configuration not stated)
TGI (KM12 colon): > 100 µM | TGI (MALME-3M melanoma): > 100 µM | TGI (MDA-N): > 100 µM | TGI (OVCAR-5 ovarian): > 100 µM | TGI (PC-3 prostate): > 100 µM | TGI (SK-MEL-2 melanoma): > 100 µM | TGI (SR leukemia): > 100 µM | TGI (TK-10 renal): > 100 µM | TGI (UACC-62 melanoma): > 100 µM

N#Cc1c(-c2ccccc2)c(CN2CCCCC2)c(=O)n2c1[nH]c1ccccc12
TGI (BT-549 breast): > 100 µM | TGI (KM12 colon): > 100 µM | TGI (MALME-3M melanoma): > 100 µM | TGI (MDA-N): > 100 µM | TGI (OVCAR-5 ovarian): > 100 µM | TGI (PC-3 prostate): > 100 µM | TGI (SK-MEL-2 melanoma): > 100 µM | TGI (TK-10 renal): > 100 µM | TGI (U251 CNS): > 100 µM

CC(=O)Nc1cccc(N=NN(C)C)c1
TGI (KM12 colon): > 100 µM | TGI (MALME-3M melanoma): > 100 µM | TGI (OVCAR-5 ovarian): > 100 µM | TGI (SK-MEL-2 melanoma): > 100 µM | TGI (U251 CNS): > 100 µM | TGI (UACC-62 melanoma): > 100 µM

CCOc1ccc(N/C(=C(/C(Cl)=C(/Cl)NC(C)(C)C)[N+](=O)[O-])n2nnc3ccccc32)cc1
TGI (BT-549 breast): 41.5 µM | TGI (KM12 colon): 61.7 µM | TGI (MALME-3M melanoma): 33.3 µM | TGI (OVCAR-5 ovarian): > 100 µM | TGI (PC-3 prostate): 83.5 µM | TGI (SK-MEL-2 melanoma): > 100 µM | TGI (U251 CNS): 35.1 µM | TGI (UACC-62 melanoma): 65.3 µM

NS(=O)(=O)c1ccc(/C=C/c2ccc(O)cc2)cc1
GI50 (KM12 colon): 11.1 µM | TGI (KM12 colon): 30 µM | TGI (MALME-3M melanoma): 78.1 µM | TGI (MDA-N): > 100 µM | TGI (OVCAR-5 ovarian): > 100 µM | TGI (PC-3 prostate): 97.7 µM | TGI (SK-MEL-2 melanoma): 60.3 µM | GI50 (SR leukemia): 4.68 µM | TGI (SR leukemia): 55.5 µM | TGI (TK-10 renal): > 100 µM | GI50 (U251 CNS): 15 µM | TGI (U251 CNS): > 100 µM | GI50 (UACC-62 melanoma): 3.4 µM | TGI (UACC-62 melanoma): 20.4 µM

CCOC1CC(C)N(C(=O)c2ccccc2)O1 (configuration not stated)
TGI (BT-549 breast): > 100 µM | TGI (KM12 colon): > 100 µM | TGI (MDA-N): > 100 µM | TGI (OVCAR-5 ovarian): > 100 µM | TGI (PC-3 prostate): > 100 µM | TGI (SR leukemia): > 100 µM | TGI (TK-10 renal): > 100 µM | TGI (U251 CNS): > 100 µM | TGI (UACC-62 melanoma): > 100 µM

CC(C)N(C(C)C)S(=O)(=O)C[C@]12CC[C@H](CC13OCC(CS(=O)(=O)c1ccccc1)O3)C2(C)C (some centres not stated)
TGI (BT-549 breast): > 100 µM | TGI (KM12 colon): > 100 µM | TGI (MALME-3M melanoma): > 100 µM | TGI (MDA-N): > 100 µM | TGI (OVCAR-5 ovarian): > 100 µM | TGI (PC-3 prostate): > 100 µM | TGI (SK-MEL-2 melanoma): > 100 µM | TGI (TK-10 renal): 98.7 µM | TGI (U251 CNS): > 100 µM | TGI (UACC-62 melanoma): > 100 µM

Cc1cnc2[nH]c(-c3ccc4ccccc4c3)cc(=O)c2c1
TGI (BT-549 breast): > 100 µM | TGI (KM12 colon): > 100 µM | TGI (OVCAR-5 ovarian): > 100 µM | GI50 (PC-3 prostate): 0.404 µM | TGI (PC-3 prostate): > 100 µM | TGI (SK-MEL-2 melanoma): > 100 µM | TGI (TK-10 renal): > 100 µM | GI50 (U251 CNS): 0.464 µM | TGI (U251 CNS): > 100 µM | TGI (UACC-62 melanoma): > 100 µM

C#CC1(O)CCCCCCCCC2(CCCCCCCC1)OCCO2
TGI (KM12 colon): 34.6 µM | TGI (MALME-3M melanoma): 34.3 µM | TGI (MDA-N): 35.9 µM | TGI (OVCAR-5 ovarian): 37.8 µM | TGI (PC-3 prostate): 25.9 µM | TGI (SK-MEL-2 melanoma): 27.9 µM | TGI (SR leukemia): 34.3 µM | TGI (TK-10 renal): 37 µM | TGI (U251 CNS): 30.8 µM | TGI (UACC-62 melanoma): 28.6 µM

O=C(N/N=C/c1cc(Br)cc(Br)c1[O-])c1ccccc1O.O=C(N/N=C/c1cc(Br)cc(Br)c1[O-])c1ccccc1O.[Co+2]
TGI (KM12 colon): 21.1 µM | TGI (MALME-3M melanoma): 18.5 µM | TGI (OVCAR-5 ovarian): 11.1 µM | TGI (SK-MEL-2 melanoma): 5.4 µM | TGI (SR leukemia): 3.29 µM | TGI (TK-10 renal): 14.1 µM | TGI (U251 CNS): 9.38 µM | TGI (UACC-62 melanoma): 1.78 µM

COc1cc(OC)c2[nH]c3c(O)c(-c4c(C)cc5c([nH]c6c(OC)cc(OC)cc65)c4O)c(C)cc3c2c1
TGI (BT-549 breast): 16.1 µM | TGI (KM12 colon): 23.8 µM | GI50 (MDA-N): 8.83 µM | TGI (MDA-N): 15.7 µM | GI50 (OVCAR-5 ovarian): 9.03 µM | TGI (OVCAR-5 ovarian): 16.2 µM | TGI (PC-3 prostate): 15.2 µM | TGI (SK-MEL-2 melanoma): 17.4 µM | GI50 (SR leukemia): 9.01 µM | TGI (SR leukemia): 20 µM | TGI (TK-10 renal): 17.9 µM | TGI (U251 CNS): 50 µM

Nc1nc(-c2ccco2)cc(-c2ccc(CO)o2)n1
TGI (KM12 colon): > 100 µM | TGI (MALME-3M melanoma): > 100 µM | TGI (OVCAR-5 ovarian): > 100 µM | TGI (SK-MEL-2 melanoma): > 100 µM | TGI (SR leukemia): > 100 µM | TGI (TK-10 renal): > 100 µM | TGI (UACC-62 melanoma): > 100 µM

CNc1nc(C(N)=O)c(N)s1
TGI (BT-549 breast): > 100 µM | TGI (KM12 colon): > 100 µM | TGI (MALME-3M melanoma): > 100 µM | TGI (MDA-N): > 100 µM | TGI (OVCAR-5 ovarian): > 100 µM | TGI (PC-3 prostate): > 100 µM | TGI (SK-MEL-2 melanoma): > 100 µM | TGI (TK-10 renal): > 100 µM | TGI (U251 CNS): > 100 µM | TGI (UACC-62 melanoma): > 100 µM

ON=C(CC(O)(C(F)(F)Cl)C(F)(F)Cl)CC(O)(C(F)(F)Cl)C(F)(F)Cl
TGI (KM12 colon): > 10 µM | TGI (MALME-3M melanoma): > 10 µM | TGI (PC-3 prostate): > 10 µM | TGI (SK-MEL-2 melanoma): 7.84 µM | TGI (SR leukemia): > 10 µM | TGI (TK-10 renal): > 10 µM | TGI (U251 CNS): > 10 µM | TGI (UACC-62 melanoma): > 10 µM

CCOC(=O)c1nc2ccc(C(F)(F)F)cc2nc1Oc1ccc(C(=O)OC)cc1
TGI (BT-549 breast): > 100 µM | TGI (KM12 colon): > 100 µM | TGI (PC-3 prostate): > 100 µM | TGI (SK-MEL-2 melanoma): > 100 µM | TGI (SR leukemia): > 100 µM | TGI (TK-10 renal): > 100 µM | TGI (U251 CNS): > 100 µM | TGI (UACC-62 melanoma): > 100 µM

O=C1CC(NCc2ccccc2)c2c(Cl)sc(Cl)c21 (configuration not stated)
TGI (BT-549 breast): 69.8 µM | TGI (KM12 colon): > 93.2 µM | TGI (MALME-3M melanoma): 44.4 µM | TGI (OVCAR-5 ovarian): > 100 µM | TGI (PC-3 prostate): 43 µM | TGI (SK-MEL-2 melanoma): 51.5 µM | TGI (SR leukemia): > 100 µM | TGI (TK-10 renal): > 68.7 µM | TGI (U251 CNS): 43.4 µM | TGI (UACC-62 melanoma): 24.3 µM
